Test results from patent publication US9433710B2, “Biocompatible implant” (LABORATORIS SANIFIT, S. L., priority 2011, dated 2016).

Legend:
RAW 264.7 cells [1] = assay: LDH cytotoxicity assay; format: cell-based, mouse; details: IP6 for 24 hours
Description: RAW cells 264.7 were seeded at a density of 20,000 cells/cm2 in 24-well plate and cultured for 24 h. After cell attachment, culture media was changed and different doses of) IP6 were added. Cells were cultured for additional 24 hours and culture media was collected to test cytotoxicity (LDH activity). LDH cytotoxicity assay was performed using the Cytotoxicity Detection Kit according to the manufacturer's protocol. This colorimetric assay quantifies activity of LDH released from the cytosol of damaged cells into the supernatant and thus serves as an index of cell death.
Results were presented relative to the LDH activity in the media of control cells (low control, 0% of cell death) and of cells treated with 1% Triton X-100 (high control, 100% death) using the equation: Cytotoxicity (%)=(exp value−low control)/(high control−low control)*100. 3. Cell Proliferation Assay

RAW 264.7 cells [2] = assay: Real-time RT-PCR of osteoclast gene and functional markers; format: cell-based, mouse; details: RANKL-treated cells, 5 days
Description: To examine the effect of IP6 on OCL formation, 20,000 cells/cm2 were seeded in 24-well plates and, after 24 h, the culture medium was replaced with media containing 100 ng/mL RANKL and different doses of IP6 (0.1, 1, 10, 100 μM). Treatments were added after changing the media every 48 h over the course of 5 days. The effect of IP6 on OCL formation was assessed by analysis of the number of TRAP-positive cells, gene expression levels of osteoclast and functional markers, resorption activity on dentin discs and actin ring formation.
Total RNA was isolated with Tripure from cells treated as describe above, following the instructions of the manufacturer. RNA was quantified using a spectrophotometer set at 260 nm (Nanodrop, Thermo Fisher Scientific Inc, US).
The same amount of total RNA ([…]) from each sample was reverse transcribed to cDNA at 37° C. for 60 minutes in a final volume of […], using High Capacity RNA to cDNA kit (Applied Biosystems, USA). Each cDNA was diluted 1/5 and aliquots, to avoid freezing and thawing cycles, were stored at −20° C. until the PCR reactions were carried out.
Real-time PCR was performed for two housekeeping genes: 18S rRNA, GAPDH; three osteoclast gene markers: TRAP, CalcR, CFMS; and four osteoclast functional markers: CtsK, MMP-9, Car2 and H+-ATPase.
Real-time PCR was performed in the Lightcycler 480® (Roche Diagnostics, Mannheim, Germany) using SYBR green detection. Each reaction contained 7 μl Lightcycler-FastStart DNA MasterPLUS SYBR Green I (containing Fast Start Taq polymerase, reaction buffer, dNTPs mix, SYBRGreen I dye and MgCl2), 0.5 μM of each, the sense and the antisense specific primers (Table 1) and 3 μl of the cDNA dilution in a final volume of 10 μl. The amplification program consisted of a preincubation step for denaturation of the template cDNA (5 min 95° C.), followed by 45 cycles consisting of a denaturation step (10 s 95° C.), an annealing step (10 s 60° C.) and an extension step (10 s 72° C.). After each cycle, fluorescence was measured at 72° C. A negative control without cDNA template was run in each assay.
To allow relative quantification after PCR, standard curves were constructed from standard reactions for each target and housekeeping genes. The crossing point readings for each of the unknown samples were used to calculate the amount of either the target or housekeeping relative to a standard curve, using the Second Derivative Maximum Method. Relative mRNA levels were calculated as the ratio of relative concentration for the target genes in the same sample using the Advanced Relative Quantification Method provided by the LightCycler 480 analysis software version 1.5 (Roche Diagnostics, Mannheim, Germany).

RAW 264.7 cells [3] = assay: Cell proliferation assay (BrdU incorporation); format: cell-based, mouse; details: IP6 for 24 hours, BrdU for 6 h
Description: RAW cells 264.7 were seeded at a density of 2,500 cells/well in a 96-well plate and cultured for 24 h. After cell attachment, culture media was changed and different doses of IP6 were added. Cells were cultured for additional 24 hours and BrdU was added for the last 6 hours. Incorporation of BrdU was determinated by Cell Proliferation ELISA kit as described by the manufacturer.

RAW 264.7 cells [4] = assay: RANKL-induced osteoclast (OCL) formation, TRAP staining; format: cell-based, mouse; details: 5 days
Description: Osteoclast-like cells were generated in culture from RAW 264.7 cells. 20,000 cells/cm2 were seeded in 24-well plates and placed in the CO2 incubator overnight to allow the cells to attach to the surface. After 24 h, the culture medium was replaced with media containing 100 ng/mL RANKL. Osteoclasts were successfully generated by dosing with RANKL every 48 h over the course of 5 days. To confirm the generation of multinucleated osteoclast-like cells, the cultured cells were stained for the enzyme TRAP using the TRAP-staining kit, according to the manufacturer's instructions. TRAP is the enzyme that has been used as a marker of osteoclast function for more than 20 years. TRAP-positive multinucleated osteoclasts were visualized by light microscopy and photographed. Each OCL formation assay was performed at least 3 times. To examine the effect of IP6 on OCL formation, 20,000 cells/cm2 were seeded in 24-well plates and, after 24 h, the culture medium was replaced with media containing 100 ng/mL RANKL and different doses of IP6 (0.1, 1, 10, 100 μM). Treatments were added after changing the media every 48 h over the course of 5 days. The effect of IP6 on OCL formation was assessed by analysis of the number of TRAP-positive cells, gene expression levels of osteoclast and functional markers, resorption activity on dentin discs and actin ring formation.

[5] = background statement; cited from earlier work
RAW 264.7 cells [6] = assay: Resorption pit assay on dentine discs; format: cell-based, mouse; details: 1 μM IP6 during osteoclastogenesis
Description: RAW 264.7 cells were seeded on dentine slices at a density of 20,000 cells/cm^2. To study the effect of IP6 on OCL formation cells were cultured with media containing 100 ng/mL RANKL and IP6 (1 μM) over the course of the entire experiment. To study the effect of IP6 on mature osteoclasts-like cells. OCLs were generated by dosing RAW 264.7 cells with RANKL over the course of 6 days and then treated with IP6 (1 μM) for 4 days. After the culturing period, cells were removed from the dentine slices by sonication in 0.1 N NaOH for 2 minutes, stained in hematoxylin for 40 seconds and washed in distilled water. The surface of each dentine slice was examined by light microscopy for evidence of lacunar resorption and quantitative analysis of the resorption area was performed with Image J software 1.44p (NIH, USA).

bone resorption = details: background statement; cited from earlier work
[7] = test system: human umbilical cord mesenchymal stem cells (hUC-MSCs); assay: Real-time RT-PCR of osteoblast markers in hUC-MSCs under osteogenic conditions; format: cell-based; details: 4 μM IP6 for 19 days
Description: hUC-MSCs from two different donors were seeded (n=12) in 24-well plates and grown to confluence in growth media consisting of DMEM-LG supplemented with penicillin (50 IU/ml), streptomycin (50 μg streptomycin/mil) and 20% FBS. Cells were cultured at 37° C. in a humidified atmosphere of 5% CO2. At confluence (designated as day 0), cells were grown in differentiation media consisting of growth media supplemented with hydrocortisone (200 nM), ascorbic acid (50 μg/ml) and β-glycerophosphate (10 mM). Cell culture media, with or without IP6, was refreshed twice a week over a 19-day time period. The experimental procedure developed in example 5 was used. In this example, Real-time PCR was performed for two housekeeping genes: beta-actin, GAPDH; and four osteoblast markers: Runx2, Col1A, ALP and OC.

O=P(O)(O)O[C@H]1[C@H](OP(=O)(O)O)[C@@H](OP(=O)(O)O)[C@H](OP(=O)(O)O)[C@@H](OP(=O)(O)O)[C@H]1OP(=O)(O)O [IP6, Myo-inositol-1,2,3,4,5,6-hexakisphosphate]
cell viability (LDH activity) (RAW 264.7 cells [1]): without affecting | MMP-9 mRNA levels (RAW 264.7 cells [2]): decreased | TRAP mRNA levels (RAW 264.7 cells [2]): decreased | calcitonin receptor mRNA levels (RAW 264.7 cells [2]): decreased | cathepsin K mRNA levels (RAW 264.7 cells [2]): decreased | cell proliferation (BrdU) (RAW 264.7 cells [3]): without affecting | osteoclastogenesis induced by RANKL (RAW 264.7 cells [4]; 100 ng/mL RANKL): decreases | number of TRAP positive cells (RAW 264.7 cells [4]; RANKL-treated cells): decreased | hydroxyapatite dissolution [5]: potent inhibitor | RANKL-induced osteoclast bone resorption ability (RAW 264.7 cells [6]): inhibits | bone resorption in animal models of osteoporosis (bone resorption): inhibitor of bone resorption | ALP mRNA levels compared to the control group [7]: higher | Col1A mRNA levels compared to the control group [7]: lower | OC mRNA levels compared to the control group [7]: higher | Runx-2 mRNA levels compared to the control group [7]: higher | osteoblast differentiation of hUC-MSCs [7]: increases
